# Measurements from patent US12528790B2, “Amide derivative having antiviral activity” (Shionogi & Co., Ltd., priority 2020, dated 2026).
# System: RSV A2 strain
# Assay: In vitro CPE (CytoPathic Effect) inhibition effect evaluation test, RSV type A
# Format: cell-based
# Settings: human respiratory syncytial virus, HEp-2, 96 h, read-out: EC50, inhibitory effect against RSV type A (CPE inhibition)
# Outline: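 HEp-2 cells (2.4×10^5 cells/mL, 2% FBS E-MEM) were infected with RSV alongside 3-fold compound dilutions and incubated at 37 °C, 4 days for A2 and 5 days for B Wash/18537. Viable cells quantified by CellTiter-Glo 2.0 luminescence; EC50 by nonlinear regression as 50% CPE inhibition.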
row,Compound,EC50 [nM]
1,Cn1c(C2CCOCC2)c(-c2ccc(C(=O)NC3(C(=O)O)C4CC5CC(C4)CC3C5)c(C(F)(F)F)n2)c2ccc(OC3CCN(c4ncccn4)CC3)cc21 (stereo not shown) [Compound I-270],37

# Same assay, conditions: human respiratory syncytial virus; inhibitory effect against RSV type A (RSV A2 strain), HEp-2 cells, CPE inhibition; read-out: EC50
row,Compound,EC50 [nM]
1,O=C(NC1(C(=O)O)C2CC3CC(C2)CC1C3)c1cnc(N2CC3(CCOCC3)c3cc(OC4CN(C5COC5)C4)ccc32)nc1C(F)(F)F (stereo not shown) [Compound I-226],< 10
2,Cc1nc(N2CC3(CCOCC3)c3cc(OC4CCN(c5ncccn5)CC4)ccc32)nc(C(F)(F)F)c1C(=O)NC1(C(=O)O)C2CC3CC(C2)CC1C3 (stereo not shown) [Compound I-229],< 10
3,O=C(NC1(C(=O)O)C2CC3CC(C2)CC1C3)c1cnc(N2CC3(CCOCC3)c3cc(OC4CN(C(=O)C5COC5)C4)ccc32)nc1C(F)(F)F (stereo not shown) [Compound I-230],< 10
4,Cn1cc(CN2CC(Oc3ccc4c(c3)C3(CCOCC3)CN4c3ncc(C(=O)NC4(C(=O)O)C5CC6CC(C5)CC4C6)c(C(F)(F)F)n3)C2)cn1 (stereo not shown) [Compound I-231],< 10
5,O=C(NC1(C(=O)O)C2CC3CC(C2)CC1C3)c1cnc(-c2cn(C3CCC(F)(F)CC3)c3ccc(O[C@H]4CC[C@H](n5cccn5)CC4)cc23)nc1C(F)(F)F (stereo partly shown) [Compound I-232],< 10
6,O=C(NC1(C(=O)O)C2CC3CC(C2)CC1C3)c1cnc(-c2cn(C3CCC(F)(F)CC3)c3cc(OC4CCN(c5nccs5)CC4)ccc23)nc1C(F)(F)F (stereo not shown) [Compound I-236],< 10
7,O=C(NC1(C(=O)O)C2CC3CC(C2)CC1C3)c1ccc(-c2cn(C3CCC(F)(F)CC3)c3cc(OC4CCN(C5COC5)CC4)ccc23)nc1C(F)(F)F (stereo not shown) [Compound I-240],< 10
8,O=C(NC1(C(=O)O)C2CC3CC(C2)CC1C3)c1cnc(-c2cn(C3CCC(F)(F)CC3)c3cc(OC4CCN(c5ncccc5F)CC4)ccc23)nc1C(F)(F)F (stereo not shown) [Compound I-241],< 10
9,O=C(NC1(C(=O)O)C2CC3CC(C2)CC1C3)c1cnc(-c2cn(C3CCC(F)(F)CC3)c3cc(OC4CCN(C5CCOCC5)CC4)ccc23)nc1C(F)(F)F (stereo not shown) [Compound I-242],< 10
10,O=C(NC1(C(=O)O)C2CC3CC(C2)CC1C3)c1cnc(N2CC3(CCCC3)c3cc(OC4CCN(c5ncccn5)CC4)ccc32)nc1C(F)(F)F (stereo not shown) [Compound I-244],< 10
11,O=C(NC1(C(=O)O)C2CC3CC(C2)CC1C3)c1cnc(-c2cn(C3CCC(F)(F)CC3)c3cc(O[C@@H]4CCN(C5COC5)C4)ccc23)nc1C(F)(F)F (stereo partly shown) [Compound I-246],< 10
12,CC(=O)N1CCC(Oc2ccc3c(-c4ncc(C(=O)NC5(C(=O)O)C6CC7CC(C6)CC5C7)c(C(F)(F)F)n4)cn(C4CCC(F)(F)CC4)c3c2)CC1 (stereo not shown) [Compound I-247],< 10
13,O=C(NC1(C(=O)O)C2CC3CC(C2)CC1C3)c1cnc(-c2cn(C3CCC(F)(F)CC3)c3cc(O[C@H]4CCN(C5COC5)C4)ccc23)nc1C(F)(F)F (stereo partly shown) [Compound I-248],< 10
14,O=C(NC1(C(=O)O)C2CC3CC(C2)CC1C3)c1ccc(-c2cn(C3CS(=O)(=O)C3)c3cc(OC4CCN(c5ncccn5)CC4)ccc23)nc1C(F)(F)F (stereo not shown) [Compound I-251],< 10
15,O=C(NC1(C(=O)O)C2CC3CC(C2)CC1C3)c1ccc(-c2cn(CC(F)(F)F)c3cc(OC4CCN(c5ncccn5)CC4)ccc23)nc1C(F)(F)F (stereo not shown) [Compound I-252],< 10
16,COCCN1CCC(Oc2ccc3c(-c4ncc(C(=O)NC5(C(=O)O)C6CC7CC(C6)CC5C7)c(C(F)(F)F)n4)cn(C4CCC(F)(F)CC4)c3c2)CC1 (stereo not shown) [Compound I-253],< 10
17,CS(=O)(=O)CCN1CCC(Oc2ccc3c(-c4ncc(C(=O)NC5(C(=O)O)C6CC7CC(C6)CC5C7)c(C(F)(F)F)n4)cn(C4CCC(F)(F)CC4)c3c2)CC1 (stereo not shown) [Compound I-254],10 to 100
18,COC(=O)N1CCC(Oc2ccc3c(-c4ncc(C(=O)NC5(C(=O)O)C6CC7CC(C6)CC5C7)c(C(F)(F)F)n4)cn(C4CCC(F)(F)CC4)c3c2)CC1 (stereo not shown) [Compound I-255],< 10
19,O=C(NC1(C(=O)O)C2CC3CC(C2)CC1C3)c1cnc(-c2cn(C3CCC(F)(F)CC3)c3cc(OC4CCN(C(=O)C5CC5)CC4)ccc23)nc1C(F)(F)F (stereo not shown) [Compound I-258],< 10

row,Compound,EC50 [nM]
1,O=C(NC1(C(=O)O)C2CC3CC(C2)CC1C3)c1cnc(-c2cn(C3CCC(F)(F)CC3)c3cc(OC4CCN(S(=O)(=O)C5CC5)CC4)ccc23)nc1C(F)(F)F (stereo not shown) [Compound I-259],< 10
2,O=C(NC1(C(=O)O)C2CC3CC(C2)CC1C3)c1cnc(-c2cn(C3CCC(F)(F)CC3)c3cc(OC4CCN(C(=O)c5ncccn5)CC4)ccc23)nc1C(F)(F)F (stereo not shown) [Compound I-260],10 to 100
3,O=C(NC1(C(=O)O)C2CC3CC(C2)CC1C3)c1ccc(-c2cn(CC3CC(F)(F)C3)c3cc(OC4CCN(c5ncccn5)CC4)ccc23)nc1C(F)(F)F (stereo not shown) [Compound I-264],< 10
4,O=C(NC1(C(=O)O)C2CC3CC(C2)CC1C3)c1ccc(-c2cn(CC3COC3)c3cc(OC4CCN(c5ncccn5)CC4)ccc23)nc1C(F)(F)F (stereo not shown) [Compound I-265],< 10
5,CC1CN(c2ncccn2)CCC1Oc1ccc2c(-c3ncc(C(=O)NC4(C(=O)O)C5CC6CC(C5)CC4C6)c(C(F)(F)F)n3)cn(C3CCC(F)(F)CC3)c2c1 (stereo not shown) [Compound I-273],< 10
6,O=C(NC1(C(=O)O)C2CC3CC(C2)CC1C3)c1cnc(N2CC3(CCOCC3)c3cc(OC4CCN(c5ncc(C(F)(F)F)cn5)CC4)ccc32)nc1C(F)(F)F (stereo not shown) [Compound I-274],< 10
7,O=C(NC1(C(=O)O)C2CC3CC(C2)CC1C3)c1cnc(-c2cn(C3CCC(F)(F)CC3)c3cc(OCc4ccc5c(c4)OCC5)ccc23)nc1C(F)(F)F (stereo not shown) [Compound I-278],< 10
8,O=C(NC1(C(=O)O)C2CC3CC(C2)CC1C3)c1cnc(N2CC3(CCOCC3)c3cc(-c4ccccc4)ccc32)nc1C(F)(F)F (stereo not shown) [Compound I-279],< 10
9,O=C(NC1(C(=O)O)C2CC3CC(C2)CC1C3)c1cnc(N2CC3(CCOCC3)c3cc(Nc4ccccn4)ccc32)nc1C(F)(F)F (stereo not shown) [Compound I-280],< 10
10,CC1(C)CCC(n2cc(-c3ccc(C(=O)NC4(C(=O)O)C5CC6CC(C5)CC4C6)c(C(F)(F)F)n3)c3ccc(OC4CCN(c5ncccn5)CC4)cc32)CC1 (stereo not shown) [Compound I-281],< 10
11,Cc1c(OC2CCN(c3ncccn3)CC2)ccc2c(-c3ncc(C(=O)NC4(C(=O)O)C5CC6CC(C5)CC4C6)c(C(F)(F)F)n3)cn(C3CCC(F)(F)CC3)c12 (stereo not shown) [Compound I-282],< 10
12,O=C(NC1(C(=O)O)C2CC3CC(C2)CC1C3)c1cnc(N2CC3(CCOCC3)c3cc(F)ccc32)nc1C(F)(F)F (stereo not shown) [Compound I-284],< 10
13,O=C(NC1(C(=O)O)C2CC3CC(C2)CC1C3)c1ccc(-c2cn([C@H]3CC[C@@H](C(F)(F)F)CC3)c3cc(OC4CCN(c5ncccn5)CC4)ccc23)nc1C(F)(F)F (stereo partly shown) [Compound I-285],< 10
14,O=C(NC1(C(=O)O)C2CC3CC(C2)CC1C3)c1ccc(-c2cn([C@H]3CC[C@H](C(F)(F)F)CC3)c3cc(OC4CCN(c5ncccn5)CC4)ccc23)nc1C(F)(F)F (stereo partly shown) [Compound I-286],10 to 100
15,O=C(NC1(C(=O)O)C2CC3CC(C2)CC1C3)c1cnc(N2CC3(CCOCC3)c3c2cc(F)c(F)c3F)nc1C(F)(F)F (stereo not shown) [Compound I-287],< 10
16,O=C(NC1(C(=O)O)C2CC3CC(C2)CC1C3)c1ccc(-c2cn(C3CCCC3)c3cc(OC4CCN(c5ncccn5)CC4)ccc23)nc1C(F)(F)F (stereo not shown) [Compound I-289],< 10
17,O=C(NC1(C(=O)O)C2CC3CC(C2)CC1C3)c1ccc(-c2cn(-c3ccc(F)cn3)c3cc(OC4CCN(c5ncccn5)CC4)ccc23)nc1C(F)(F)F (stereo not shown) [Compound I-290],< 10
18,CC(C)(C)C[C@@H](NC(=O)c1cnc(-c2cn(C3CCC(F)(F)CC3)c3cc(OC4CCN(c5ncccn5)CC4)ccc23)nc1C(F)(F)F)C(=O)O [Compound I-302],< 10

# Same assay, conditions: inhibitory effect against RSV type A (RSV A2 strain), HEp-2 cells, CPE inhibition; read-out: EC50
row,Compound,EC50 [nM]
1,O=C(NC1(C(=O)O)C2CC3CC(C2)CC1C3)c1cnc(N2CC3(CCOCC3)c3cc(Cc4ccccc4)ccc32)nc1C(F)(F)F (stereo not shown) [Compound I-293],10 to 100
2,CC(F)(F)c1nc(N2CC3(CCOCC3)c3cc(OC4CCN(c5ncccn5)CC4)ccc32)ncc1C(=O)NC1(C(=O)O)C2CC3CC(C2)CC1C3 (stereo not shown) [Compound I-294],< 10
3,COc1cccc(-n2cc(-c3ccc(C(=O)NC4(C(=O)O)C5CC6CC(C5)CC4C6)c(C(F)(F)F)n3)c3ccc(OC4CCN(c5ncccn5)CC4)cc32)n1 (stereo not shown) [Compound I-296],< 10
4,O=C(NC1(C(=O)O)C2CC3CC(C2)CC1C3)c1cnc(N2CC3(CCOCC3)c3cc4c(cc32)OC(F)(F)O4)nc1C(F)(F)F (stereo not shown) [Compound I-299],10 to 100
5,O=C(NC1(C(=O)O)C2CC3CC(C2)CC1C3)c1ccc(-c2cn(-c3ccc(C(F)(F)F)cn3)c3cc(OC4CCN(c5ncccn5)CC4)ccc23)nc1C(F)(F)F (stereo not shown) [Compound I-303],< 10
6,O=C(NC1(C(=O)O)C2CC3CC(C2)CC1C3)c1cnc(N2CC3(CCOCC3)c3cc(C(F)(F)F)ccc32)nc1C(F)(F)F (stereo not shown) [Compound I-307],< 10
7,O=C(NC1(C(=O)O)C2CC3CC(C2)CC1C3)c1ccc(-c2cn(-c3ncccc3F)c3cc(OC4CCN(c5ncccn5)CC4)ccc23)nc1C(F)(F)F (stereo not shown) [Compound I-310],< 10
8,Cc1cccnc1-n1cc(-c2ccc(C(=O)NC3(C(=O)O)C4CC5CC(C4)CC3C5)c(C(F)(F)F)n2)c2ccc(OC3CCN(c4ncccn4)CC3)cc21 (stereo not shown) [Compound I-311],< 10
9,O=C(NC1(C(=O)O)C2CC3CC(C2)CC1C3)c1ccc(-c2cn(-c3ccncc3F)c3cc(OC4CCN(c5ncccn5)CC4)ccc23)nc1C(F)(F)F (stereo not shown) [Compound I-312],< 10
10,O=C(NC1(C(=O)O)C2CC3CC(C2)CC1C3)c1ccc(-c2cn(-c3ccccc3F)c3cc(OC4CCN(c5ncccn5)CC4)ccc23)nc1C(F)(F)F (stereo not shown) [Compound I-313],< 10
11,Cc1ccccc1-n1cc(-c2ccc(C(=O)NC3(C(=O)O)C4CC5CC(C4)CC3C5)c(C(F)(F)F)n2)c2ccc(OC3CCN(c4ncccn4)CC3)cc21 (stereo not shown) [Compound I-314],< 10
